In patent US9140688B2, “Sperm staining and sorting methods” (INGURAN, LLC, priority 2011, dated 2015):

Tests used:
[1] = cited from earlier work; for Expected Absorption Maxima: solvent water, shorter-wavelength local maximum
[2] = test system: membrane compromised bovine sperm stained with Hoechst 33342; assay: Dead quenching: dead gate intensity divided by live gate intensity, flow cytometry of stained bovine sperm; format: cell-based; details: for Dead Intensity (dead gate intensity divided by live gate intensity): Ex 5; for Intensity (dead gate): Hoechst 48 μM
From the text: FIG. 4 illustrates an example bivariate plot and univariate histogram of the parameters measured during sex selection by a FACS on a flow cytometer. […] Without a dead quenching dye, both populations of sperm would overlap to a large extent, with unpredictable variations in the dead sperm.
The entire ejaculate of sperm was suspended in first staining buffer, specifically a 7.4 pH TALP described in TABLE 1, to a concentration of 160×10^6 sperm per mL (determined on nucleocounter) and divided into three aliquots of about 20 mL into 50 mL Falcon tubes and pre-warmed for 10 minutes at 34° C. The DNA selective fluorescent dye, Hoechst 33342, was added and samples were held at 34° C. for 60 minutes. 3 different Hoechst 33342 Stain Levels were used=12 μL, 14 μL and 16 μL per 2 mL (effective concentrations of 48 μM, 56 μM, 64 μM).
Preparation of the second buffer including the dead quenching dye—A 2 L bag of TALP, described in TABLE 1, was adjusted to pH 5.60 using HCl and then sterile filtered. […] For each of the four dyes tested (R40—red food dye No. 40, Y5—yellow food dye No. 5, Y6—yellow food dye No. 6 and PR—phenol red), an appropriate number of milligrams of each powder was placed in a Erlenmeyer Flask and then an exact amount of TALP pH 5.60 was added to create a […] concentration of the dye. The result was a working TALP stock for each dye with a 100% (125 μM) relative amount of dye 50% relative (62.5 μM) and 20% relative (25 μM) solutions were made by dilution of 100% by TALP pH 5.60.
After this “bulk” staining for 60 minutes, 1 mL aliquots of stained sperm were combined with 1 mL aliquots of the second buffer including the dead quenching dyes. Samples sat for approximately 30 minutes at room temperature before being analyzed on a MoFlo SX (Beckman Coulter, USA) sperm sorting flow cytometer. Event rates were held as close to 13,000 as possible at the point of data acquisition.
The total number of individual treatments was 42 tubes, each containing 2 mL of stained sample. The alignment of the sorter was established using nuclei and confirmed with live sample from the 50% Red 40 series. Once good alignment was established, each tube was placed on the sorter long enough to establish a stabile dead gate population (about 30 seconds) and then a screenshot was taken and saved as a .jpeg image. This approach of rapidly documenting each sample is used to assure the most consistent alignment between all samples. Realignment of sorter will not cause differences in the intensities of live and dead gate populations but will cause differences in split quality.
FIG. 4 illustrates an example histogram. The ratio of dead gate intensity divided by live gate intensity is created by dividing the distance “A” by the distance “B” shown as a percentage. Lower values mean higher levels of quenching. The ratio of peak height divided by valley height is created by dividing the distance “C” by the distance “D”. A value of 1.00 means “no split” while higher values mean “better splits”. […]

[3] = test system: X- and Y-chromosome bearing bovine sperm stained with Hoechst 33342; assay: Split quality: height of peak divided by height of valley (PV), flow cytometry of stained bovine sperm; format: cell-based; details: for Height of Peak/Height of Valley: Ex 5; for peak to valley ratio, average 8 bulls: Ex 10, Hoechst 64 μM
[4] = dye 62.5 μM, Hoechst 12 μL/2 mL
[5] = dye 62.5 μM, Hoechst 14 μL/2 mL
[6] = dye 62.5 μM, Hoechst 16 μL/2 mL

Q: What does the source list for `O=C([O-])C1=NN(c2ccc(S(=O)(=O)[O-])cc2)C(=O)/C1=N/Nc1ccc(S(=O)(=O)[O-])cc1.[Na+].[Na+].[Na+]` [Yellow 5, Trisodium (4E)-5-oxo-1-(4-sulfonatophenyl)-4-[(4-sulfonatophenyl)hydrazono]-3-pyrazolecarboxylate]?
A: Expected Absorption Maxima [1]: 422 nm; Dead Intensity (dead gate intensity divided by live gate intensity) ([2]; dye 25 μM, Average of Hoechst levels): 90%; Dead Intensity (dead gate intensity divided by live gate intensity) ([2]; dye 25 μM, Hoechst 12 μL/2 mL): 90%; Dead Intensity (dead gate intensity divided by live gate intensity) ([2]; dye 25 μM, Hoechst 14 μL/2 mL): 90%; Dead Intensity (dead gate intensity divided by live gate intensity) ([2]; dye 25 μM, Hoechst 16 μL/2 mL): 90%; Dead Intensity (dead gate intensity divided by live gate intensity) ([2]; dye 62.5 μM, Average of Hoechst levels): 74%; Dead Intensity (dead gate intensity divided by live gate intensity) [2, 4]: 74%; Dead Intensity (dead gate intensity divided by live gate intensity) [2, 5]: 77%; Dead Intensity (dead gate intensity divided by live gate intensity) [2, 6]: 70%; Dead Intensity (dead gate intensity divided by live gate intensity) ([2]; dye 125 μM, Average of Hoechst levels): 57%; Dead Intensity (dead gate intensity divided by live gate intensity) ([2]; dye 125 μM, Hoechst 12 μL/2 mL): 54%; Dead Intensity (dead gate intensity divided by live gate intensity) ([2]; dye 125 μM, Hoechst 14 μL/2 mL): 63%; Dead Intensity (dead gate intensity divided by live gate intensity) ([2]; dye 125 μM, Hoechst 16 μL/2 mL): 55%; amount of dye needed for a similar dead gate intensity ratio as red food dye No. 40 and yellow food dye No. 6 ([2]; Ex 6): about five times as much; Intensity (dead gate) ([2]; Ex 6, dye 125 μM, resulting pH 6.70): 63%; Intensity (dead gate) ([2]; Ex 6, dye 250 μM, resulting pH 6.70): 48%; Intensity (dead gate) ([2]; Ex 6, dye 500 μM, resulting pH 6.70): 43%; Intensity (dead gate) ([2]; Ex 6, dye 750 μM, resulting pH 6.70): <30%; Intensity (dead gate) ([2]; Ex 6, dye 875 μM, resulting pH 6.70): <30%; Intensity (dead gate) ([2]; Ex 6, dye 1250 μM, second buffer pH 5.60 (resulting pH 6.70)): <30%; Height of Peak/Height of Valley ([3]; dye 25 μM, Average of 12 and 14 μL series): 1.72; Height of Peak/Height of Valley ([3]; dye 25 μM, Hoechst 12 μL/2 mL): 1.90; Height of Peak/Height of Valley ([3]; dye 25 μM, Hoechst 14 μL/2 mL): 1.54; Height of Peak/Height of Valley ([3]; dye 25 μM, Hoechst 16 μL/2 mL): 1.00; Height of Peak/Height of Valley ([3]; dye 62.5 μM, Average of 12 and 14 μL series): 1.65; Height of Peak/Height of Valley [3, 4]: 1.60; Height of Peak/Height of Valley [3, 5]: 1.70; Height of Peak/Height of Valley [3, 6]: 1.00; Height of Peak/Height of Valley ([3]; dye 125 μM, Average of 12 and 14 μL series): 1.82; Height of Peak/Height of Valley ([3]; dye 125 μM, Hoechst 12 μL/2 mL): 1.72; Height of Peak/Height of Valley ([3]; dye 125 μM, Hoechst 14 μL/2 mL): 1.92; Height of Peak/Height of Valley ([3]; dye 125 μM, Hoechst 16 μL/2 mL): 1.03; PV ([3]; Ex 6, dye 125 μM, resulting pH 6.70, Hoechst 48 μM): 1.00; PV ([3]; Ex 6, dye 250 μM, resulting pH 6.70, Hoechst 48 μM): 1.00; PV ([3]; Ex 6, dye 500 μM, resulting pH 6.70, Hoechst 48 μM): 1.00; PV ([3]; Ex 6, dye 750 μM, resulting pH 6.70, Hoechst 48 μM): 1.00; PV ([3]; Ex 6, dye 875 μM, resulting pH 6.70, Hoechst 48 μM): 1.00; PV ([3]; Ex 6, dye 1250 μM, resulting pH 6.70, Hoechst 48 μM (understained)): 1.00

Q: Which “Expected Absorption Maxima” value [1] does the source give for `CCN(Cc1cccc(S(=O)(=O)[O-])c1)c1ccc(C(=C2C=CC(=[N+](CC)Cc3cccc(S(=O)(=O)[O-])c3)C=C2)c2ccccc2S(=O)(=O)[O-])cc1.[Na+].[Na+]` [Blue 1] here?
A: The value was 627 nm.

Q: With `CCN(Cc1cccc(S(=O)(=O)[O-])c1)c1ccc(C(=C2C=CC(=[N+](CC)Cc3cccc(S(=O)(=O)[O-])c3)C=C2)c2ccc(O)cc2S(=O)(=O)[O-])cc1.[Na+].[Na+]` [Green 3] as the compound, how does the “Expected Absorption Maxima” value [1] read?
A: The value was 625 nm.

Q: For `O=C1/C(=C2\Nc3ccc(S(=O)(=O)[O-])cc3C2=O)Nc2ccc(S(=O)(=O)[O-])cc21.[Na+].[Na+]` [Blue 2], which “Expected Absorption Maxima” value [1] is on record?
A: Its value is 610 nm.

Q: Which results are given for `O=C(O)c1ccccc1-c1c2cc(I)c(=O)c(I)c-2oc2c(I)c(O)c(I)cc12` [Red 3, 2-(6-Hydroxy-2,4,5,7-tetraiodo-3-oxo-xanthen-9-yl)benzoic acid]?
A: (local) maximum absorption wavelength, as believed ([1]; phenol red in the red molecular form): about 530 nm; Expected Absorption Maxima [1]: 530 nm; PV ([3]; Ex 9, Bull 3, Hoechst 60 μM, R3 25 μM with Y6 50 μM, first Y6 series): 1.45; PV ([3]; Ex 9, Bull 3, Hoechst 60 μM, R3 50 μM with R40 50 μM): 1.63; PV ([3]; Ex 9, Bull 3, Hoechst 60 μM, R3 50 μM with Y6 50 μM, second Y6 series): 1.33; PV ([3]; Ex 9, Bull 3, Hoechst 60 μM, R3 100 μM with R40 50 μM): 1.65; PV ([3]; Ex 9, Bull 3, Hoechst 60 μM, R3 100 μM with Y6 50 μM, first Y6 series): 1.38; PV ([3]; Ex 9, Bull 3, Hoechst 60 μM, R3 100 μM with Y6 50 μM, second Y6 series): 1.55; PV ([3]; Ex 9, Bull 3, Hoechst 60 μM, R3 150 μM with Y6 50 μM, first Y6 series): 1.41; PV ([3]; Ex 9, Bull 3, Hoechst 60 μM, R3 200 μM with R40 50 μM): 1.78; PV ([3]; Ex 9, Bull 3, Hoechst 60 μM, R3 300 μM with R40 50 μM): 2.15; PV ([3]; Ex 9, Bull 3, Hoechst 60 μM, R3 300 μM with Y6 50 μM, first Y6 series): 1.66; PV ([3]; Ex 9, Bull 3, Hoechst 60 μM, R3 300 μM with Y6 50 μM, second Y6 series): 1.68; PV ([3]; Ex 9, Bull 3, Hoechst 60 μM, R3 600 μM with Y6 50 μM, first Y6 series): 1.31; PV ([3]; Ex 9, Bull 3, Hoechst 60 μM, R3 600 μM with Y6 50 μM, second Y6 series): 1.42; peak to valley ratio, average 8 bulls ([3]; split enhancing dye 15 μM, 30 Min incubation, Y6 25 μM in second buffer): 1.05; peak to valley ratio, average 8 bulls ([3]; split enhancing dye 15 μM, 45 Min, Y6 25 μM): 1.43; peak to valley ratio, average 8 bulls ([3]; split enhancing dye 15 μM, 60 Min, Y6 25 μM): 1.78; peak to valley ratio, average 8 bulls ([3]; split enhancing dye 15 μM, 75 Min, Y6 25 μM): 1.79; peak to valley ratio, average 8 bulls ([3]; split enhancing dye 45 μM, 30 Min, Y6 25 μM): 1.05; peak to valley ratio, average 8 bulls ([3]; split enhancing dye 45 μM, 45 Min, Y6 25 μM): 1.36; peak to valley ratio, average 8 bulls ([3]; split enhancing dye 45 μM, 60 Min, Y6 25 μM): 1.58; peak to valley ratio, average 8 bulls ([3]; split enhancing dye 45 μM, 75 Min, Y6 25 μM): 1.60; peak to valley ratio, average 8 bulls ([3]; split enhancing dye 125 μM, 30 Min, Y6 25 μM): 1.00; peak to valley ratio, average 8 bulls ([3]; split enhancing dye 125 μM, 45 Min, Y6 25 μM): 1.02; peak to valley ratio, average 8 bulls ([3]; split enhancing dye 125 μM, 60 Min, Y6 25 μM): 1.10; peak to valley ratio, average 8 bulls ([3]; split enhancing dye 125 μM, 75 Min, Y6 25 μM): 1.32
